Where “and” joins values, the source holds several entries; their conditions need not be identical. Equal values may be shown once. Records with an inconclusive call do not appear.
System: Lewis lung carcinoma i.m., BDF1 mice, T/C %
Assay: NCI In Vivo Anticancer Drug Screen. Data for tumor model Lewis Lung Carcinoma (intramuscular) in B6D2F1 (BDF1) mice
How it was run: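 Transplantable tumour model; readout survival or tumour size; value = treated (T) / vehicle control (C).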

Question: For CC1([CH2][Hg][I])CS(=O)(=O)CC(C)([CH2][Hg][I])O1 (stereo not given), which T/C (endpoint: mean tumor weight (est.), dose: 2.5 mg/kg/injection, schedule: Q01DX011 (ip), vehicle: saline with Tween-80, higher = larger tumour) is on record?
Answer: 82 % of control

Question: And the T/C (endpoint: mean tumor weight (est.), dose: 5.0 mg/kg/injection, schedule: Q01DX011 (ip), vehicle: saline with Tween-80, higher = larger tumour)?
Answer: 89 % of control

Question: What about the T/C (endpoint: mean tumor weight (est.), dose: 10.0 mg/kg/injection, schedule: Q01DX011 (ip), vehicle: saline with Tween-80, higher = larger tumour) of the same molecule?
Answer: 49 % of control

Question: And the T/C (endpoint: mean tumor weight (est.), dose: 20.0 mg/kg/injection, schedule: Q01DX011 (ip), vehicle: saline with Tween-80, higher = larger tumour)?
Answer: 47 % of control

Question: What about the T/C (endpoint: median survival time, dose: 2.5 mg/kg/injection, schedule: Q01DX011 (ip), vehicle: saline with Tween-80, higher = longer survival) of the same molecule?
Answer: 94 % of control

Question: What about the T/C (endpoint: median survival time, dose: 5.0 mg/kg/injection, schedule: Q01DX011 (ip), vehicle: saline with Tween-80, higher = longer survival) of the same molecule?
Answer: 98 % of control

Question: What about the T/C (endpoint: median survival time, dose: 10.0 mg/kg/injection, schedule: Q01DX011 (ip), vehicle: saline with Tween-80, higher = longer survival) of the same molecule?
Answer: 112 % of control

Question: What about the T/C (endpoint: median survival time, dose: 20.0 mg/kg/injection, schedule: Q01DX011 (ip), vehicle: saline with Tween-80, higher = longer survival) of the same molecule?
Answer: 100 % of control

Question: Which results are given for Nc1nc(=S)c2[nH]cnc2[nH]1?
Answer: T/C (endpoint: mean tumor weight, dose: 0.12 mg/kg/injection, schedule: Q01DX011 (ip), vehicle: other, higher = larger tumour): 105 % of control; T/C (endpoint: mean tumor weight, dose: 0.25 mg/kg/injection, schedule: Q01DX011 (ip), vehicle: other, higher = larger tumour): 93 % of control; T/C (endpoint: mean tumor weight, dose: 0.5 mg/kg/injection, schedule: Q01DX011 (ip), vehicle: other, higher = larger tumour): 76 % of control; T/C (endpoint: median survival time, dose: 0.12 mg/kg/injection, schedule: Q01DX011 (ip), vehicle: other, higher = longer survival): 97 % of control and 106 % of control; T/C (endpoint: median survival time, dose: 0.25 mg/kg/injection, schedule: Q01DX011 (ip), vehicle: other, higher = longer survival): 116 % of control and 121 % of control; T/C (endpoint: median survival time, dose: 0.5 mg/kg/injection, schedule: Q01DX011 (ip), vehicle: other, higher = longer survival): 116 % of control

Question: CC(=O)O[C@]1(C(C)=O)CC[C@H]2[C@@H]3C[C@H](C)C4=CC(=O)CC[C@]4(C)[C@H]3CC[C@@]21C was tested. Which T/C (endpoint: median survival time, dose: 50.0 mg/kg/injection, schedule: Q01DX009 (ip), vehicle: Klucel (hydroxypropylcellulose) (HPC), higher = longer survival) did it give?
Answer: 90 % of control

Question: What about the T/C (endpoint: median survival time, dose: 50.0 mg/kg/injection, schedule: Q01DX011 (ip), vehicle: Klucel (hydroxypropylcellulose) (HPC), higher = longer survival) of the same molecule?
Answer: 104 % of control and 109 % of control

Question: And the T/C (endpoint: median survival time, dose: 100.0 mg/kg/injection, schedule: Q01DX009 (ip), vehicle: Klucel (hydroxypropylcellulose) (HPC), higher = longer survival)?
Answer: 107 % of control

Question: And the T/C (endpoint: median survival time, dose: 100.0 mg/kg/injection, schedule: Q01DX011 (ip), vehicle: Klucel (hydroxypropylcellulose) (HPC), higher = longer survival)?
Answer: 104 % of control

Question: What about the T/C (endpoint: median survival time, dose: 200.0 mg/kg/injection, schedule: Q01DX009 (ip), vehicle: Klucel (hydroxypropylcellulose) (HPC), higher = longer survival) of the same molecule?
Answer: 110 % of control

Question: And the T/C (endpoint: median survival time, dose: 200.0 mg/kg/injection, schedule: Q01DX011 (ip), vehicle: Klucel (hydroxypropylcellulose) (HPC), higher = longer survival)?
Answer: 107 % of control and 119 % of control

Question: And the T/C (endpoint: median survival time, dose: 400.0 mg/kg/injection, schedule: Q01DX009 (ip), vehicle: Klucel (hydroxypropylcellulose) (HPC), higher = longer survival)?
Answer: 114 % of control

Question: What about the T/C (endpoint: median survival time, dose: 400.0 mg/kg/injection, schedule: Q01DX011 (ip), vehicle: Klucel (hydroxypropylcellulose) (HPC), higher = longer survival) of the same molecule?
Answer: 109 % of control and 123 % of control

Question: What about the T/C (endpoint: median survival time, dose: 800.0 mg/kg/injection, schedule: Q01DX009 (ip), vehicle: Klucel (hydroxypropylcellulose) (HPC), higher = longer survival) of the same molecule?
Answer: 90 % of control

Question: Which results are given for COc1ccc2nc3cc(Cl)ccc3c(NCCO)c2c1?
Answer: T/C (endpoint: mean tumor weight (est.), dose: 34.37 mg/kg/injection, schedule: Q01DX011 (ip), vehicle: saline with Tween-80, higher = larger tumour): 19 % of control; T/C (endpoint: mean tumor weight (est.), dose: 68.75 mg/kg/injection, schedule: Q01DX011 (ip), vehicle: saline with Tween-80, higher = larger tumour): 55 % of control; T/C (endpoint: median survival time, dose: 34.36 mg/kg/injection, schedule: Q01DX011 (ip), vehicle: saline with Tween-80, higher = longer survival): 91 % of control; T/C (endpoint: median survival time, dose: 68.75 mg/kg/injection, schedule: Q01DX011 (ip), vehicle: saline with Tween-80, higher = longer survival): 96 % of control

Question: Which T/C (endpoint: mean tumor weight, dose: 6.25 mg/kg/injection, schedule: Q01DX011 (ip), vehicle: saline with Tween-80, higher = larger tumour) does the source give for Oc1c(Cl)cc(Cl)c2cccnc12 here?
Answer: 60 % of control

Question: And the T/C (endpoint: mean tumor weight, dose: 12.5 mg/kg/injection, schedule: Q01DX011 (ip), vehicle: saline with Tween-80, higher = larger tumour)?
Answer: 19 % of control

Question: What about the T/C (endpoint: median survival time, dose: 6.25 mg/kg/injection, schedule: Q01DX011 (ip), vehicle: saline with Tween-80, higher = longer survival) of the same molecule?
Answer: 122 % of control

Question: Which T/C (endpoint: mean tumor weight, dose: 0.5 mg/kg/injection, schedule: Q01DX011 (ip), vehicle: saline, higher = larger tumour) does the source give for O=C1N[C@@H]([C@H]2CC[C@H](Cl)CN2)C(=O)N[C@H]1[C@H]1CC[C@H](Cl)CN1 here?
Answer: 67 % of control and 92 % of control

Question: What about the T/C (endpoint: mean tumor weight, dose: 1.0 mg/kg/injection, schedule: Q01DX011 (ip), vehicle: saline, higher = larger tumour) of the same molecule?
Answer: 65 % of control and 87 % of control

Question: And the T/C (endpoint: mean tumor weight, dose: 2.0 mg/kg/injection, schedule: Q01DX011 (ip), vehicle: saline, higher = larger tumour)?
Answer: 42 % of control and 64 % of control

Question: What about the T/C (endpoint: median survival time, dose: 0.5 mg/kg/injection, schedule: Q01DX011 (ip), vehicle: saline, higher = longer survival) of the same molecule?
Answer: 105 % of control and 116 % of control

Question: What about the T/C (endpoint: median survival time, dose: 1.0 mg/kg/injection, schedule: Q01DX011 (ip), vehicle: saline, higher = longer survival) of the same molecule?
Answer: 95 % of control and 119 % of control

— PubChem BioAssay AID272 (DTP/NCI, 2004)
